Data set [1] relates to HCT-116 cells. Description: SRB cytotoxicity assay, HCT-116. It is filed as cell-based, human. The settings on record: SRB assay, 72 h exposure; ± SEM. In a few lines: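 Cells in RPMI1640/10% FBS were seeded at 5000 per well and grown 24 h. They were then exposed to 0.01–100 μM compound, or 1% DMSO, for 72 h at 37 °C. After TCA fixation and SRB staining, OD was read at 510 nm and viability expressed relative to untreated controls.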
A general note: In SRB staining, fixed cells bind dye roughly in proportion to their protein.

In a further data set the test system is HT-29 cells. Description: SRB cytotoxicity assay, HT-29. It is filed as cell-based, human. The note with it: monolayer, 72 h exposure, ± SEM. In a few lines:
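Cells seeded at 5000/well, grown 24 h, then exposed 72 h at 37 °C to 0.01–100 μM compound or 1% DMSO in RPMI1640 with 10% FBS. TCA-fixed, SRB-stained, OD read at 510 nm; viability expressed relative to untreated control cells.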

For data set [2], the system named is HCT-116 cells. The experiment in a line: Annexin V/propidium iodide apoptotic cell determination. It is filed as cell-based, human. The settings on record: IC50 concentration.
Method: Apoptosis was determined by staining cells with Annexin V-fluorescein isothiocyanate (FITC) and counterstaining with propidium iodide (PI) using the Annexin V-FITC/PI apoptosis detection kit (BD Biosciences, San Diego, Calif., USA) according to the manufacturer's instructions. Briefly, 4×10^6 cell/T 75 flask were exposed to the IC50 of tested compound for 24 and 48 h. The cells were collected by trypsinization and 0.5×10^6 cells were washed twice with phosphate-buffered saline (PBS) and stained with 5 μl Annexin V-FITC and 5 μl PI in 1× binding buffer (BD Biosciences, San Jose, Calif., USA) for 15 min at room temperature in the dark. Analyses were performed using FACS Calibur flow cytometer (BD Biosciences, San Jose, Calif., USA).
In the next data set the test system is Swiss albino mice. The experiment in a line: Acute oral toxicity (LD50), OECD guideline 423. It is filed as in vivo. The note with it: oral, mice. From the text:
Since compounds with electrophilic properties, e.g., MA are usually involved in a variety of toxic effects on mammalians, the general acute toxicity of 1512, 3712 and 4112 was investigated by determining the in vivo lethal dose (LD50) according to the Globally Harmonized Classification System (GHS) and following the Organization for Economic Cooperation and Development (OECD) guideline 423 (modified, adopted Mar. 23, 2006). As observed in the cellular assay, the compound safety was confirmed, as the LD50 for all compounds were between 2000-5000 mg/kg (Category 5). See Spielmann, H.; Genschow, E.; Liebsch, M.; Halle, W., Determination of the starting dose for acute oral toxicity (LD50) testing in the up and down procedure (UDP) from cytotoxicity data. ATLA 1999, 27 (6), 957-966, incorporated herein by reference in its entirety.
The experiment was conducted on 12 healthy Swiss albino mice (males and females) weighing 22-27 g and aged 8 to 10 weeks obtained from the Animal Station, Pharmacology Dept, Faculty of Pharmacy, King Abdulaziz University, Jeddah. See Shoieb, S. M.; Esmat, A.; Khalifa, A. E.; Abdel-Naim, A. B., Chrysin attenuates testosterone-induced benign prostate hyperplasia in rats. Food and Chemical Toxicology 2018, 111, 650-659, incorporated herein by reference in its entirety. All animals were kept at the regulated temperature (average 23° C.), air quality (Central air conditioning) and light (12-h light/dark cycles). Animals were provided free access to food pellets ad libitum and water. The experimental procedure was approved by the Research Ethics Committee, Faculty of Pharmacy, King Abdulaziz University prior to starting the laboratory work. Animals were humanely treated according to international and scientific principles. Changes other than vitality of the animals such as behavioral and food consumption habits were not observed in this study.
The compounds 1512, 3712 and 4112 of purity 95% or more (LC/MS) were prepared for this study as 10% suspension in water containing 0.5% tween 80.
The animals were distributed randomly into four groups (3 mice at each group). […] The second group received an oral dose of 2000 mg/Kg of the drug and observed after 24 h to count the deceased animals. According to the Guideline 423, when all animals were found alive, the same test was repeated (dose 2000 mg/kg) were given to the third group (3 animals) and observed for 24 h. All animals survived and therefore, a dose of 5000 mg/kg were administered to the fourth and final group.

Regarding `CCCNC(=O)/C(=C/c1c[nH]c2ccccc12)NC(=O)/C=C/c1cccs1` [Compound 4112, (Z)-3-(1H-indol-3-yl)-N-propyl-2-[(E)-3-(thien-2-yl)acrylamidolacry]amide], half-maximal inhibition with HCT-116 cells [1] (IC50) was put at 2850 ± 1500 nM. Also, in the data set on HT-29 cells, the 50% inhibitory concentration (IC50) (usually the concentration that gives 50% inhibition) is 1650 ± 70 nM. For the same compound, in the data set with HCT-116 cells [2] (after 48 hours), the “cell population in early apoptosis” value is on record as 17.5%, the “cell population in late apoptosis” value stood at 4.1% and the viable cells is 72%. Further, the “change in cell viability” value in the data set on HCT-116 cells [2] (at 24 hours) is given as “very little change in cell viability”. The “GHS acute toxicity category” value in the data set on Swiss albino mice is “Category 5”.
